From patent US11912682B2, “Isoindolinone compounds” (Monte Rosa Therapeutics, Inc., priority 2021, dated 2024) come the findings set out here.

Common to all, as to type: cell-based
One experiment concerns the target IKZF1 (Ikaros) (Homo sapiens (Human), UniProt Q13422). The experiment is described as follows: selectivity by Western blot in MM1S cells, IKZF1. The arrangement: key to IKZF1 degradation: A represents a no degradation observed at 30 μM; B represents trace degradation at 30 μM (below 20%); C represents weak degradation at 30 μM (below 50%); D represents degradation at 30 μM (>90%); E represents degradation at 3 μM (>90%); F represents degradation at 0.3 μM (>90%). The note with it: MM1S cells, 6 hours, 0.3, 3 and 30 μM. On the procedure: (§1) MM1S cells were purchased from ATCC (cat. Number CRL-2974), sub-cultured in 90% RPMI 1640 with 10% FBS, supplemented with 1× P/S and incubated at 37° C., 5% CO2. Compounds were stored as 10 mM DMSO stock. For the assay, MM1S cells (3 million cells/well) were plated in 6-well plates and incubated over night. Cells were treated with respective compounds using a serial dilution: 0.3 μM, 3 μM and 30 μM as well as a vehicle only (DMSO) control for 6 hours. Media with suspension cells was subsequently transferred to 15 mL conical tubes, wells rinsed twice with ice-cold PBS and merged with cell suspension in respective 15 mL conical tube. Cells were spinned down, supernatant aspirated, pellets resuspended in ice-cold PBS and transferred to microtubes. Cells were spinned down, supernatant aspirated and pellets resuspended in 120 μL RIPA lysis buffer supplemented with protease and phosphatase inhibitors. Cell lysates were incubated on ice for 20 minutes followed by centrifugation at >20,000 xg for 5 min. Supernatants were transferred to fresh microtubes and stored at −80° C. Total protein concentration was determined using a BCA assay with a BSA standard curve and concentration of all samples was adjusted to 1 mg/mL. 25 μL 4× LDS sample buffer supplemented with 100 mM DTT was added to 75 μL sample. Samples were centrifuged (8,000 xg, 1 min) and incubated at 95° C. for 5 min followed by another centrifugation step (8,000 xg, 1 min). 20 μL of each sample was loaded on a 4-12% gel alongside a protein molecular weight marker. Gels were run in the presence of MOPS buffer at 80 Volts for 30 min, followed by 120 Volts for 1.5 h and proteins subsequently transferred onto nitrocellulose membranes at 20 Volts for 7 min using an iBlot2 Gel Transfer Device. Membranes were then cut horizontally into two pieces, covering 80-50 kDa and 50-25 kDa. Blocking the membranes was performed by gently shaking in 5% (w/v) skim milk in TSB-T for 1 hr at room temperature. All primary antibodies were used at a 1/1000 in 5% (w/v) BSA dissolved in TBST and incubated with membranes over night at 4° C. Anti-IKZF1 (Ikaros; D6N9Y; 14859S), anti-IKZF3 (Aiolos; D1C1E; 15103S) antibodies were purchased from Cell Signalling Technology, anti-ZFP91 antibody from Bethyl laboratories, anti-GSPT1 from Sigma Aldrich (HPA052488) and anti CK1alpha from AbCam (ab206652). After three washes with 1× TBST for 5 min, HRP-coupled secondary antibodies diluted in 5% (w/v) BSA/TBST (Goat Anti-Rb IgG, dil. 1/10,000; Goat Anti-Mouse IgG, dil. 1/5000) were added for 1 hr at room temperature. After three washes with 1× TBST (5 minutes each), membranes were incubated with ECL reagent for 1 min at room temperature. Chemiluminescence signals were then detected using a LAS-4000 system with default settings and signals quantified using Image Studio Lite software (version 5.2). Membrane parts previously incubated with antibody against CK1alpha were stripped off antibodies by incubating with stripping buffer for 30 minutes followed by three washed with TBST (5 min each), blocking with 5% (w/v) skim milk for 1 hr, and incubation with primary antibody against GAPDH overnight at 4° C. Subsequent washes, incubation with secondary antibody and signal acquisition were performed as described above.
(In general: In western blotting, separated proteins are transferred to a membrane and probed.)

The target of a further experiment is CK1alpha (Homo sapiens (Human), UniProt P48729). Nature of the experiment: selectivity by Western blot in MM1S cells, CK1alpha. As to conditions: MM1S cells, 6 hours, 0.3, 3 and 30 μM. On the procedure: as §1
The target in experiment [1] is T1, GSPT1 (Homo sapiens (Human), UniProt P15170+Q96SW2). The experiment is described as follows: immunofluorescence assay for GSPT1 degradation in CAL-51 cells (Example 4). The procedure, abridged:
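CAL-51 cells on fibronectin-coated plates were treated 6 h with serial dilutions (30 μM to 0.1 nM), then fixed and immunostained for GSPT1 with DAPI and phalloidin counterstains. Per-cell mean GSPT1 intensity from high-content imaging, normalized to controls; DC50 by non-linear regression.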
Target sequence in this assay (P15170 whole entry): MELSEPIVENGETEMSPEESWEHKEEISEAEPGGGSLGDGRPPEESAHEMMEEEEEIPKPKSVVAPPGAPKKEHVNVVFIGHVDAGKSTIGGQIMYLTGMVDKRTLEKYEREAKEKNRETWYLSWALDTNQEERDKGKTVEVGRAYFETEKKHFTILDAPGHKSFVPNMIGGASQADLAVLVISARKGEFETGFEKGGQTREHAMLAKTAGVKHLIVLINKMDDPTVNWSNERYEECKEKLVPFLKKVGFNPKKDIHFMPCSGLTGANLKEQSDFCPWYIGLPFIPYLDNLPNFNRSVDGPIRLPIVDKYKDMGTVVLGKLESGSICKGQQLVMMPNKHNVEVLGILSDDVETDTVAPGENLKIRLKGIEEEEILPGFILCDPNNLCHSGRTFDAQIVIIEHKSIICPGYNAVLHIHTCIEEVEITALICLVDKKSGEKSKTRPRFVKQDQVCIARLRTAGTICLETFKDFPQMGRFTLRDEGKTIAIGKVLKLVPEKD
Target sequence in this assay (Q96SW2 whole entry): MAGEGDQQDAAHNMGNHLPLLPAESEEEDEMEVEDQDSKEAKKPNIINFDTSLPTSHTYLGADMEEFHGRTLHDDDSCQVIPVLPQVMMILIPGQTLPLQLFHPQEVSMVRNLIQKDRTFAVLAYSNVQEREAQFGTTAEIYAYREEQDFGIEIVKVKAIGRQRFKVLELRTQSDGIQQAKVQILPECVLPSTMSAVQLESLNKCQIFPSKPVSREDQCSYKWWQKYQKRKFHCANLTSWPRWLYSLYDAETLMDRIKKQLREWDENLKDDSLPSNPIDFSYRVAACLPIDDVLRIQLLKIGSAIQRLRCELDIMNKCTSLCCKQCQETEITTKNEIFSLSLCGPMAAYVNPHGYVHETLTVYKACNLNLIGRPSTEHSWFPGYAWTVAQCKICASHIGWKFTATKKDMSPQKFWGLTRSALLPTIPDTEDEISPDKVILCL
Target sequence in this assay (Q16531 2-1140 partner): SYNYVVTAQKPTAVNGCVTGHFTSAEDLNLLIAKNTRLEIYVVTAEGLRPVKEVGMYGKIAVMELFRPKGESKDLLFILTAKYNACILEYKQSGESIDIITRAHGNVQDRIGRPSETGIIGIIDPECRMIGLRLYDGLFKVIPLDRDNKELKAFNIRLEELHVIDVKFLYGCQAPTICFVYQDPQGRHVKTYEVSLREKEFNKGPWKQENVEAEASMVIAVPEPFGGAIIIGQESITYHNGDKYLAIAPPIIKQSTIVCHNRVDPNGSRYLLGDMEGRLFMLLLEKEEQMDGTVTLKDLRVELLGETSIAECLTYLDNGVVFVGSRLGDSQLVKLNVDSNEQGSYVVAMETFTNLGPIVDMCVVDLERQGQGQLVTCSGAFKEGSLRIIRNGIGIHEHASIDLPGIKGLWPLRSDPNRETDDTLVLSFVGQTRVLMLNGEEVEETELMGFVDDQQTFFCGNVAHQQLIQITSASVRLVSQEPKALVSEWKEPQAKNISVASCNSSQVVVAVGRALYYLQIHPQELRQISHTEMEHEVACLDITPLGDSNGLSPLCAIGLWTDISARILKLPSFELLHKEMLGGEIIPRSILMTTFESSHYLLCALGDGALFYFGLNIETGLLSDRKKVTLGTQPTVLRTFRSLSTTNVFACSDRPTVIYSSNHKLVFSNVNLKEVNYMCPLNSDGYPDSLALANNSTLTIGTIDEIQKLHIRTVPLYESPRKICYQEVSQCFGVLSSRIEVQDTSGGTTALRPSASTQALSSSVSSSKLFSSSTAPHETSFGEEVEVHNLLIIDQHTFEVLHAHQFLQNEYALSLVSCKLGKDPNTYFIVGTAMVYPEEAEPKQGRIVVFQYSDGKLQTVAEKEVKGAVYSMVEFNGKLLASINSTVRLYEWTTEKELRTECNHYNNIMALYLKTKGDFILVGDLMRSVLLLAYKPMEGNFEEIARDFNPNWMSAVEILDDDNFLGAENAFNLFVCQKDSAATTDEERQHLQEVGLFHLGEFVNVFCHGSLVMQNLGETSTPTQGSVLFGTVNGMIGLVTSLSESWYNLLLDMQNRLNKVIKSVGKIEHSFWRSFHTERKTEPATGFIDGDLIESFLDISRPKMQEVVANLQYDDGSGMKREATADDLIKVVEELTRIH

The next experiment deals with IKZF3 (Aiolos) (Homo sapiens (Human), UniProt Q9UKT9). The experiment is described as follows: selectivity by Western blot in MM1S cells, IKZF3. The arrangement: key to IKZF3 degradation: A represents a no degradation observed at 30 μM; B represents trace degradation at 30 μM (below 20%); C represents weak degradation at 30 μM (below 50%); D represents degradation at 30 μM (>90%); E represents degradation at 3 μM (>90%); F represents degradation at 0.3 μM (>90%). As to conditions: MM1S cells, 6 hours, 0.3, 3 and 30 μM. On the procedure:
as §1

For the next experiment, the target named is ZFP91 (Homo sapiens (Human), UniProt Q96JP5). Nature of the experiment: selectivity by Western blot in MM1S cells, ZFP91. The arrangement: key: A represents a no degradation observed at 30 μM; B represents trace degradation at 30 μM (below 20%); C represents weak degradation at 30 μM (below 50%); D represents degradation at 30 μM (>90%); E represents degradation at 3 μM (>90%); F represents degradation at 0.3 μM (>90%). The note with it: 6 hours, 0.3, 3 and 30 μM. How it is done: as §1, with “After three washes with 1× TBST (5 minutes each), membranes were incubated with ECL reagent for 1 min at room temperature.” left out, “Membrane parts previously incubated with antibody against CK1alpha were stripped off antibodies by incubating with stripping buffer for 30 minutes followed by three washed with TBST (5 min each), blocking with 5% (w/v) skim milk for 1 hr, and incubation with primary antibody against GAPDH overnight at 4° C. Subsequent washes, incubation with secondary antibody and signal acquisition were performed as described above.” left out

The target in experiment [2] is T1, GSPT1. The experiment is described as follows: selectivity by Western blot in MM1S cells, GSPT1. The note with it: MM1S cells, 6 hours, 0.3, 3 and 30 μM. How it is done:
as §1
Target sequence in this assay (P15170 whole entry, looked up): as the sequence (P15170 whole entry) above
Target sequence in this assay (Q96SW2 whole entry, looked up): as the sequence (Q96SW2 whole entry) above
Target sequence in this assay (Q16531 whole entry partner, looked up): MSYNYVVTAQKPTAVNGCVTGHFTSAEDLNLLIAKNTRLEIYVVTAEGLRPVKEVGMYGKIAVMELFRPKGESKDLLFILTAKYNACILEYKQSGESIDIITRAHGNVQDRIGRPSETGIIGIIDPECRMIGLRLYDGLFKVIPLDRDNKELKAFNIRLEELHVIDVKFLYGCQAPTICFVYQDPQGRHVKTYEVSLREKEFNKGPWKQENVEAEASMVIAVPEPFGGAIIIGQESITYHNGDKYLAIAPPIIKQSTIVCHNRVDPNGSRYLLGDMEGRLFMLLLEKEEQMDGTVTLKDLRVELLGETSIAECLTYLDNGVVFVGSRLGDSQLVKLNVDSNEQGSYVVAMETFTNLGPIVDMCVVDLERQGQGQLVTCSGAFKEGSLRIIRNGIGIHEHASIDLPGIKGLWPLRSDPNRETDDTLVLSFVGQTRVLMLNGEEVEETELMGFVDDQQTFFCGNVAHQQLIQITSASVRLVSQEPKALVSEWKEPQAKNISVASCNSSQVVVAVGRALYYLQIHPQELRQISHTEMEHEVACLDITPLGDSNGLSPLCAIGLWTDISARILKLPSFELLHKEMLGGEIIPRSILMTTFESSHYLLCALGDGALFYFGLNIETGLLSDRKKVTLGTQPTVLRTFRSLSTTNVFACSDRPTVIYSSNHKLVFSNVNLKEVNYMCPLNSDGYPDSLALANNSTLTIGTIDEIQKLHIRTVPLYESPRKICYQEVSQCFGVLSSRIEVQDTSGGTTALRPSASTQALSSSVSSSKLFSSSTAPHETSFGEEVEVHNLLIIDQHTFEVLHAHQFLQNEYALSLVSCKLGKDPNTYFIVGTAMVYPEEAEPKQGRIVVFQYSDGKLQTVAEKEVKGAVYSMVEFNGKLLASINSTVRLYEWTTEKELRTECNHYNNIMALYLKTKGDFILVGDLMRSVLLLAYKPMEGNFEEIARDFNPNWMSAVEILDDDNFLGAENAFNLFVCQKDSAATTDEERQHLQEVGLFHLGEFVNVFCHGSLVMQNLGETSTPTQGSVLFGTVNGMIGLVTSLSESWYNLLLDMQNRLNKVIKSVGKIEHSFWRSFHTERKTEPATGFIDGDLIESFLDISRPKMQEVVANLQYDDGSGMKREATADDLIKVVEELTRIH

In experiment [3] the target is T1, GSPT1. Nature of the experiment: immunofluorescence assay for GSPT1 degradation in CAL-51 cells (Example 10). As to conditions: CAL-51 cells, 6 h; read-out: IF Class (GSPT1 degradation DC50). How it is done:
The representative compounds were tested in an immunofluorescence assay for their activity to degrade GSPT1. […] Compounds were stored at 10 mM DMSO stocks. […] Cells were subsequently rinsed with PBS and fixed in 10% Formalin solution (50 μl, Sigma HT5011)) for 20 mins at room temperature. […] Following three further PBS washes, 50 μL blocking buffer (1% BSA, Sigma A4503, in PBS) was added for 45 min for signal-to noise reduction. Primary antibody (human GSPT1, Sigma HPA052488) was diluted in blocking buffer (dil.1/300, 35 μL/well) and incubated with the cells overnight at 4° C. […] After three final PBS washes, samples were conserved in 100 μL PBS in the dark, until measurement. Image acquisition was performed on the Operetta High-Content Imager (Perkin-Elmer). […] For the determination of GSPT1 DC50 values, a custom algorithm implemented in the PerkinElmer image analysis software Harmony-Acapella® was developed. After user-defined setting of adjustment parameters, the analysis was run identically without human intervention for all image fields. DAPI staining of the nuclei was used to determine the location of cells using standard nuclei detection modules. Segmentation artifacts were removed by threshold-based filters for area, roundness and intensity. The outline of the cells was determined analogously from the sum of the normalized, smoothed DAPI and Actin channel, starting from each nucleus. […] GSPT1 degradation (DC50) was calculated after normalization to controls and data import in CDD vault Database, using non-linear regression.
Target sequence in this assay (P15170 whole entry): as the sequence (P15170 whole entry) above
Target sequence in this assay (Q96SW2 whole entry): as the sequence (Q96SW2 whole entry) above
Target sequence in this assay (Q16531 2-1140 partner): as the sequence (Q16531 2-1140 partner) above

The mark [4] stands for this setting: 6 hours, read-out: Activity for GSPT1 degradation, Code (DC50).
Where [5] appears, read: GSPT1 degradation, read-out: DC50 value.

Chain of CK1alpha (P48729 whole entry, looked up): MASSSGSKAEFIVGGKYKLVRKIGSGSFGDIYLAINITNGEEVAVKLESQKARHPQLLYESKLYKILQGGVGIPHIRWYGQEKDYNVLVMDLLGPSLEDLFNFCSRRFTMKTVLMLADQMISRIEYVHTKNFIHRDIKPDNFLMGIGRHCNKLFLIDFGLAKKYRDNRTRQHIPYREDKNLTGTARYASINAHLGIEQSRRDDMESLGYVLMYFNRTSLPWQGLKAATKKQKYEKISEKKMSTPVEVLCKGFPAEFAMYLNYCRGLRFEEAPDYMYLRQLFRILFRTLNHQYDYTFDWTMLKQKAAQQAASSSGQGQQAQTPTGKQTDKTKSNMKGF
Chain of IKZF1 (Ikaros) (Q13422 whole entry, looked up): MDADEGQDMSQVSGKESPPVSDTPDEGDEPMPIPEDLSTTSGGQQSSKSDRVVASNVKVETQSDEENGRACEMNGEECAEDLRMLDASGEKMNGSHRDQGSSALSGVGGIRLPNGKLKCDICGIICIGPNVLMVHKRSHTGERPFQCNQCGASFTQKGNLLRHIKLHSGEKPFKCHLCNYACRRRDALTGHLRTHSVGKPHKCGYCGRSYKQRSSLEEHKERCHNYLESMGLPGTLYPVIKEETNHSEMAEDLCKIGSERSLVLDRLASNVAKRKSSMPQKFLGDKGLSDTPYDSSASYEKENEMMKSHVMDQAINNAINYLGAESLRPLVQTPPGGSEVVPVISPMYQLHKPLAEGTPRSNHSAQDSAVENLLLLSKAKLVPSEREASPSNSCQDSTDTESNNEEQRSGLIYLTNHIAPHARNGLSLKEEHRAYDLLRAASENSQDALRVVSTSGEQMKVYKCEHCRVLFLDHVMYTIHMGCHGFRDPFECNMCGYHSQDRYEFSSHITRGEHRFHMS
Chain of IKZF3 (Aiolos) (Q9UKT9 whole entry, looked up): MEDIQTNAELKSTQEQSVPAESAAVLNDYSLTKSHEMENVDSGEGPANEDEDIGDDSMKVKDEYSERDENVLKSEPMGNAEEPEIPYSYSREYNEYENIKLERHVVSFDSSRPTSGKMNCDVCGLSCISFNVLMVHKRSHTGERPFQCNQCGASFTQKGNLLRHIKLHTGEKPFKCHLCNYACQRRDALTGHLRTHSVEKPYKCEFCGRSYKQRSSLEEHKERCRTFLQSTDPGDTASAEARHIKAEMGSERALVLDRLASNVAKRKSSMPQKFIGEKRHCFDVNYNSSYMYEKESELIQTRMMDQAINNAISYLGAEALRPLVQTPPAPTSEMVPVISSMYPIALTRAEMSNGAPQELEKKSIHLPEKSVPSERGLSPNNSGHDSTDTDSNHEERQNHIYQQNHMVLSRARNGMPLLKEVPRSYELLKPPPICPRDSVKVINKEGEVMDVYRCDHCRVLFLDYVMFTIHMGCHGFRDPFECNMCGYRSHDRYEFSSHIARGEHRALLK

By DC50 is commonly meant the concentration at which degradation of the target reaches its halfway point. In the case of `COc1cc(C)c(Cl)cc1NC(=O)OCc1ccc2c(c1)C(=O)N(C1CCC(=O)NC1=O)C2` (stereo not drawn) [Compound 1], the IKZF1 degradation result at IKZF1 (Ikaros) is “A”. Further, the CK1alpha degradation result on CK1alpha is listed as “B (B represents trace degradation at 30 μM (below 20%))”. Also, the half-maximal degradation concentration (DC50) was below 30 nM at GSPT1 [1] (setting [4]) and at most 30 nM on GSPT1 [1] (setting [5]). The IKZF3 degradation result at IKZF3 (Aiolos) was “B (B represents trace degradation at 30 μM (below 20%))”. In addition, the ZFP91 degradation entry at ZFP91 is given as “A”. At GSPT1 [2], the GSPT1 degradation result is “F (F represents degradation at 0.3 μM (>90%))”.

Turning to `O=C1CCC(N2Cc3ccc(COC(=O)Nc4cccc(OC(F)(F)F)c4)cc3C2=O)C(=O)N1` (stereo not drawn) [Compound 3], the IKZF1 degradation entry on IKZF1 (Ikaros) is “A”. The CK1alpha degradation entry at CK1alpha is recorded as “B (B represents trace degradation at 30 μM (below 20%))”. For the same compound, the 50% degradation concentration (DC50) on GSPT1 [1] (setting [4]) was below 30 nM; on GSPT1 [1] (setting [5]) it was at most 30 nM. In addition, at IKZF3 (Aiolos), the IKZF3 degradation result is “A”. Further, the ZFP91 degradation entry on ZFP91 is given as “B (B represents trace degradation at 30 μM (below 20%))”. In addition, the GSPT1 degradation result on GSPT1 [2] is “F (F represents degradation at 0.3 μM (>90%))”.

`Cc1c(Cl)cc(NC(=O)OCc2ccc3c(c2)C(=O)N(C2CCC(=O)NC2=O)C3)cc1OCCN1CCOCC1` (stereo not drawn) [Compound 48]: the IKZF1 degradation result on IKZF1 (Ikaros) is reported as “A”. Moreover, the CK1alpha degradation entry on CK1alpha was “B (B represents trace degradation at 30 μM (below 20%))”. Further, the DC50 on GSPT1 [1] (setting [4]) is below 30 nM; at GSPT1 [1] (setting [5]), at most 30 nM. At IKZF3 (Aiolos), the IKZF3 degradation result is listed as “B (B represents trace degradation at 30 μM (below 20%))”. The GSPT1 degradation entry on GSPT1 [2] is given as “F (F represents degradation at 0.3 μM (>90%))”.

On to `CCOc1cc(NC(=O)OCc2ccc3c(c2)C(=O)N(C2CCC(=O)NC2=O)C3)c(F)cc1C` (stereo not drawn) [Compound 228], for which the DC50 at GSPT1 [3] was below 30 nM.

On to `COc1cc(NC(=O)OCc2ccc3c(c2)C(=O)N(C2CCC(=O)NC2=O)C3)c(F)cc1C` (stereo not drawn) [Compound 229, (2-(2,6-dioxopiperidin-3-yl)-3-oxoisoindolin-5-yl)methyl (2-fluoro-5-methoxy-4-methylphenyl)carbamate], for which, at GSPT1 [3], the DC50 is 30 to 300 nM.

As for `Cc1cc(F)c(NC(=O)OCc2ccc3c(c2)C(=O)N(C2CCC(=O)NC2=O)C3)cc1OC(C)C` (stereo not drawn) [Compound 230, (2-(2,6-dioxopiperidin-3-yl)-3-oxoisoindolin-5-yl)methyl (2-fluoro-5-isopropoxy-4-methylphenyl)carbamate], at GSPT1 [3], the half-maximal degradation concentration (DC50) was below 30 nM.

In the case of `CCCOc1cc(NC(=O)OCc2ccc3c(c2)C(=O)N(C2CCC(=O)NC2=O)C3)c(F)cc1C` (stereo not drawn) [Compound 231, (2-(2,6-dioxopiperidin-3-yl)-3-oxoisoindolin-5-yl)methyl (2-fluoro-4-methyl-5-propoxyphenyl)carbamate], the half-maximal degradation concentration (DC50) at GSPT1 [3] is below 30 nM.

Take `C[C@@H]1CCCN1c1cnc(NC(=O)OCc2ccc3c(c2)C(=O)N(C2CCC(=O)NC2=O)C3)c(F)c1` (stereo partly drawn) [Compound 232, (2-(2,6-dioxopiperidin-3-yl)-3-oxoisoindolin-5-yl)methyl (3-fluoro-5-((R)-2-methylpyrrolidin-1-yl)pyridin-2-yl)carbamate]: on GSPT1 [3], the DC50 lay within 30 to 300 nM.

On to `Cc1cc(F)c(NC(=O)OCc2ccc3c(c2)C(=O)N(C2CCC(=O)NC2=O)C3)cc1C(F)(F)F` (stereo not drawn) [Compound 233], for which the half-maximal degradation concentration (DC50) on GSPT1 [3] fell in the range of 30 to 300 nM.

In the case of `CC(F)(F)c1ccc(F)c(NC(=O)OCc2ccc3c(c2)C(=O)N(C2CCC(=O)NC2=O)C3)c1` (stereo not drawn) [Compound 234], at GSPT1 [3], the 50% degradation concentration (DC50) was above 300 nM.

Take `CC(C)(C)c1ccc(F)c(NC(=O)OCc2ccc3c(c2)C(=O)N(C2CCC(=O)NC2=O)C3)c1` (stereo not drawn) [Compound 235]: the DC50 at GSPT1 [3] lay within 30 to 300 nM.

As for `CC1(c2ccc(NC(=O)OCc3ccc4c(c3)C(=O)N(C3CCC(=O)NC3=O)C4)cc2Cl)COC1` (stereo not drawn) [Compound 236, (2-(2,6-dioxopiperidin-3-yl)-3-oxoisoindolin-5-yl)methyl (3-chloro-4-(3-methyloxetan-3-yl)phenyl)carbamate], the half-maximal degradation concentration (DC50) on GSPT1 [3] is below 30 nM.

With `Cc1cc(NC(=O)OCc2ccc3c(c2)C(=O)N(C2CCC(=O)NC2=O)C3)ncc1N1CCC[C@H]1C` (stereo partly drawn) [Compound 237, (2-(2,6-dioxopiperidin-3-yl)-3-oxoisoindolin-5-yl)methyl (4-methyl-5-((R)-2-methylpyrrolidin-1-yl)pyridin-2-yl)carbamate], on GSPT1 [3], the 50% degradation concentration (DC50) lay within 30 to 300 nM.

Regarding `O=C1CCC(N2Cc3ccc(COC(=O)Nc4ccc(C(O)C(F)(F)F)nc4)cc3C2=O)C(=O)N1` (stereo not drawn) [Compound 238], on GSPT1 [3], the half-maximal degradation concentration (DC50) was above 300 nM.

With `O=C1CCC(N2Cc3ccc(COC(=O)Nc4cccc(Cl)c4)cc3C2=O)C(=O)N1` (stereo not drawn) [Compound 239, (2-(2,6-dioxopiperidin-3-yl)-3-oxoisoindolin-5-yl)methyl (3-chlorophenyl)carbamate], the DC50 at GSPT1 [3] was below 30 nM.

Turning to `CC1(c2ccc(NC(=O)OCc3ccc4c(c3)C(=O)N(C3CCC(=O)NC3=O)C4)cc2F)COC1` (stereo not drawn) [Compound 240, (2-(2,6-dioxopiperidin-3-yl)-3-oxoisoindolin-5-yl)methyl (3-fluoro-4-(3-methyloxetan-3-yl)phenyl)carbamate], the DC50 on GSPT1 [3] was 30 to 300 nM.
